Measured values published in PubChem BioAssay AID1963835 (Molecular Pharmacology Branch, DTP, NCI, 2024).
Several values for one entry are separate records, joined by “and”; a condition that tells them apart may be missing. Identical values can stand only once.

Tested on: 699152-130-R-J1-PDC complex spheroid viability
Assay: Anticancer human tumor 699152-130-R-J1-PDC patient-derived pancreatic carcinoma cell line growth inhibition [POLQ]
Settings: for viability, T/C: stronger effect = lower value
Summary of the method: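 Patient-derived tumour cells were co-cultured with HUVEC and mesenchymal stem cells as multicellular spheroids at 37 °C. They were treated with POLQ inhibitors (novobiocin, ART-558, RP6685) alone or combined with other agents. Top concentrations were at or near clinical Cmax (otherwise 10 microM; SN-38 at 1 microM), decreasing in half-log steps.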

[1] = curve of first compound, second compound 0.0316 µM
[2] = curve of first compound, second compound 0.1 µM
[3] = curve of first compound, second compound 0.316 µM
[4] = curve of first compound, second compound 1 µM
[5] = curve of first compound, second compound 3.16 µM
[6] = curve of first compound, second compound 10 µM
[7] = second compound 0.0316 µM, first compound 0.0316 µM
[8] = second compound 0.0316 µM, first compound 0.1 µM
[9] = second compound 0.0316 µM, first compound 0.316 µM
[10] = second compound 0.0316 µM, first compound 1 µM
[11] = second compound 0.0316 µM, first compound 3.16 µM
[12] = second compound 0.0316 µM, first compound 10 µM
[13] = second compound 0.1 µM, first compound 0.0316 µM
[14] = second compound 0.1 µM, first compound 0.1 µM
[15] = second compound 0.1 µM, first compound 0.316 µM
[16] = second compound 0.1 µM, first compound 1 µM
[17] = second compound 0.1 µM, first compound 3.16 µM
[18] = second compound 0.1 µM, first compound 10 µM
[19] = second compound 0.316 µM, first compound 0.0316 µM
[20] = second compound 0.316 µM, first compound 0.1 µM
[21] = second compound 0.316 µM, first compound 0.316 µM
[22] = second compound 0.316 µM, first compound 1 µM
[23] = second compound 0.316 µM, first compound 3.16 µM
[24] = second compound 0.316 µM, first compound 10 µM
[25] = second compound 1 µM, first compound 0.0316 µM
[26] = second compound 1 µM, first compound 0.1 µM
[27] = second compound 1 µM, first compound 0.316 µM
[28] = second compound 1 µM, first compound 1 µM
[29] = second compound 1 µM, first compound 3.16 µM
[30] = second compound 1 µM, first compound 10 µM
[31] = second compound 3.16 µM, first compound 0.0316 µM
[32] = second compound 3.16 µM, first compound 0.1 µM
[33] = second compound 3.16 µM, first compound 0.316 µM
[34] = second compound 3.16 µM, first compound 1 µM
[35] = second compound 3.16 µM, first compound 3.16 µM
[36] = second compound 3.16 µM, first compound 10 µM
[37] = second compound 10 µM, first compound 0.0316 µM
[38] = second compound 10 µM, first compound 0.1 µM
[39] = second compound 10 µM, first compound 0.316 µM
[40] = second compound 10 µM, first compound 1 µM
[41] = second compound 10 µM, first compound 3.16 µM
[42] = second compound 10 µM, first compound 10 µM
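Further: spheroids exposed to agents for 7 days before viability reading.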
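Wherever viability, T/C is given: percent of DMSO vehicle control viability so 100% = vehicle and 0% = no viable signal.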

SMILES: CC(C)n1c(=O)n(C)c2cnc3cc(F)c(-c4ccc(OCCCN5CCCCC5)nc4)cc3c21 + COC1C(OC(N)=O)C(O)C(Oc2ccc3c(O)c(NC(=O)c4ccc(O)c(CC=C(C)C)c4)c(=O)oc3c2C)OC1(C)C
- IC50 [1]: < 31.6 nM
- IC50 [2]: < 31.6 nM
- IC50 [3]: < 31.6 nM
- IC50 [4]: < 31.6 nM
- IC50 [5]: < 31.6 nM
- IC50 [6]: < 31.6 nM
- viability, T/C [7]: 38.8%
- viability, T/C [8]: 44.1%
- viability, T/C [9]: 39.9%
- viability, T/C [10]: 47.7%
- viability, T/C [11]: 46.4%
- viability, T/C [12]: 45.8%
- viability, T/C [13]: 34.7%
- viability, T/C [14]: 40.6%
- viability, T/C [15]: 41.8%
- viability, T/C [16]: 41%
- viability, T/C [17]: 38.9%
- viability, T/C [18]: 39.9%
- viability, T/C [19]: 38.9%
- viability, T/C [20]: 39.2%
- viability, T/C [21]: 46.5%
- viability, T/C [22]: 44.8%
- viability, T/C [23]: 42%
- viability, T/C [24]: 43.5%
- viability, T/C [25]: 40.9%
- viability, T/C [26]: 44.4%
- viability, T/C [27]: 40.4%
- viability, T/C [28]: 39.6%
- viability, T/C [29]: 41.8%
- viability, T/C [30]: 41.8%
- viability, T/C [31]: 40.5%
- viability, T/C [32]: 41.9%
- viability, T/C [33]: 41.7%
- viability, T/C [34]: 47.2%
- viability, T/C [35]: 42.6%
- viability, T/C [36]: 41.3%
- viability, T/C [37]: 48.5%
- viability, T/C [38]: 39.8%
- viability, T/C [39]: 37.8%
- viability, T/C [40]: 38.3%
- viability, T/C [41]: 44.6%
- viability, T/C [42]: 37.5%

SMILES: CC[C@@]1(O)C(=O)OCc2c1cc1n(c2=O)Cc2cc3c(CN(C)C)c(O)ccc3nc2-1 + Nc1ccc(C#CCN(C(=O)Cc2ncc(C(F)(F)F)cc2C(F)(F)F)c2ccc(F)cc2)nn1
- IC50 [1]: > 100 nM
- IC50 [2]: > 100 nM
- IC50 [3]: > 100 nM
- IC50 [4]: > 100 nM
- IC50 [5]: > 100 nM
- IC50 [6]: > 100 nM
- viability, T/C (second compound 0.0316 µM, first compound 0.000316 µM): 109%
- viability, T/C (second compound 0.0316 µM, first compound 0.001 µM): 106%
- viability, T/C (second compound 0.0316 µM, first compound 0.00316 µM): 97.9%
- viability, T/C (second compound 0.0316 µM, first compound 0.01 µM): 91.8%
- viability, T/C [7]: 80.6%
- viability, T/C [8]: 65.9%
- viability, T/C (second compound 0.1 µM, first compound 0.000316 µM): 100%
- viability, T/C (second compound 0.1 µM, first compound 0.001 µM): 108%
- viability, T/C (second compound 0.1 µM, first compound 0.00316 µM): 95.3%
- viability, T/C (second compound 0.1 µM, first compound 0.01 µM): 92.1%
- viability, T/C [13]: 84.4%
- viability, T/C [14]: 57.7%
- viability, T/C (second compound 0.316 µM, first compound 0.000316 µM): 99.7%
- viability, T/C (second compound 0.316 µM, first compound 0.001 µM): 105%
- viability, T/C (second compound 0.316 µM, first compound 0.00316 µM): 102%
- viability, T/C (second compound 0.316 µM, first compound 0.01 µM): 90%
- viability, T/C [19]: 80.1%
- viability, T/C [20]: 73.2%
- viability, T/C (second compound 1 µM, first compound 0.000316 µM): 113%
- viability, T/C (second compound 1 µM, first compound 0.001 µM): 97.8%
- viability, T/C (second compound 1 µM, first compound 0.00316 µM): 109%
- viability, T/C (second compound 1 µM, first compound 0.01 µM): 97%
- viability, T/C [25]: 82.6%
- viability, T/C [26]: 69.9%
- viability, T/C (second compound 3.16 µM, first compound 0.000316 µM): 102%
- viability, T/C (second compound 3.16 µM, first compound 0.001 µM): 105%
- viability, T/C (second compound 3.16 µM, first compound 0.00316 µM): 95.8%
- viability, T/C (second compound 3.16 µM, first compound 0.01 µM): 108%
- viability, T/C [31]: 85.2%
- viability, T/C [32]: 62.2%
- viability, T/C (second compound 10 µM, first compound 0.000316 µM): 109%
- viability, T/C (second compound 10 µM, first compound 0.001 µM): 119%
- viability, T/C (second compound 10 µM, first compound 0.00316 µM): 123%
- viability, T/C (second compound 10 µM, first compound 0.01 µM): 114%
- viability, T/C [37]: 108%
- viability, T/C [38]: 68%

SMILES: CCc1cc2c(N3CCc4c(cc(Cn5ccnc5)cc4-c4cn(C)nc4C(F)(F)F)C3=O)cc(C)nc2c(OC)n1 + Nc1ccc(C#CCN(C(=O)Cc2ncc(C(F)(F)F)cc2C(F)(F)F)c2ccc(F)cc2)nn1
- IC50 [1]: > 10000 nM
- IC50 [2]: > 10000 nM
- IC50 [3]: > 10000 nM
- IC50 [4]: > 10000 nM
- IC50 [5]: > 10000 nM
- IC50 [6]: > 10000 nM
- viability, T/C [7]: 85.8%
- viability, T/C [8]: 89.8%
- viability, T/C [9]: 97.3%
- viability, T/C [10]: 101%
- viability, T/C [11]: 99.4%
- viability, T/C [12]: 106%
- viability, T/C [13]: 87.7%
- viability, T/C [14]: 88.8%
- viability, T/C [15]: 96.9%
- viability, T/C [16]: 93.4%
- viability, T/C [17]: 100%
- viability, T/C [18]: 107%
- viability, T/C [19]: 89.5%
- viability, T/C [20]: 94.2%
- viability, T/C [21]: 101%
- viability, T/C [22]: 89.7%
- viability, T/C [23]: 97%
- viability, T/C [24]: 101%
- viability, T/C [25]: 86.5%
- viability, T/C [26]: 93.6%
- viability, T/C [27]: 95.6%
- viability, T/C [28]: 95.5%
- viability, T/C [29]: 100%
- viability, T/C [30]: 104%
- viability, T/C [31]: 105%
- viability, T/C [32]: 95.7%
- viability, T/C [33]: 102%
- viability, T/C [34]: 106%
- viability, T/C [35]: 107%
- viability, T/C [36]: 106%
- viability, T/C [37]: 99.8%
- viability, T/C [38]: 118%
- viability, T/C [39]: 110%
- viability, T/C [40]: 107%
- viability, T/C [41]: 117%
- viability, T/C [42]: 115%

SMILES: C=CC(=O)N1CCN(c2nc(=O)n(-c3c(C)ccnc3C(C)C)c3nc(-c4c(O)cccc4F)c(F)cc23)C(C)C1 (stereo not given)
- viability, T/C (compound 0.0316 µM): 105% and 104% and 110%
- viability, T/C (compound 0.1 µM): 103% and 99.2% and 98%
- viability, T/C (compound 0.316 µM): 108% (2×) and 115%
- viability, T/C (compound 1 µM): 113% and 97.7% and 121%
- viability, T/C (compound 3.16 µM): 118% and 115% and 113%
- viability, T/C (compound 10 µM): 109% and 106% and 105%
- IC50 (curve of compound): > 10000 nM

SMILES: CC(C)n1c(=O)n(C)c2cnc3cc(F)c(-c4ccc(OCCCN5CCCCC5)nc4)cc3c21
- viability, T/C (compound 0.0316 µM): 93.3% and 103% and 119%
- viability, T/C (compound 0.1 µM): 88.1% and 91.7% and 92.8%
- viability, T/C (compound 0.316 µM): 98.6% and 105% and 99.7%
- viability, T/C (compound 1 µM): 110% and 102% and 97.5%
- viability, T/C (compound 3.16 µM): 96.3% and 110% and 87.4%
- viability, T/C (compound 10 µM): 87.1% and 91.8% and 85.5%
- IC50 (curve of compound): > 10000 nM
